This is an account of results in US20260263555A1, “ANNEXIN A1 DELAYED DOSING” (Reso Ther Pharma A/S, priority 2023, published 2026).

For this test, the system named is rat model of acute myocardial infarction. In words: Peptide 1 treatment for 1 day versus 3 days, cardiac function by transthoracic echocardiography in a rat model of acute myocardial infarction. Format: in vivo, male Sprague Dawley rats. Here is the method:
Myocardial infarction was induced in male Sprague Dawley rats. On day 0 rats were anaesthetized with a mixture of 2 to 2.2% isoflurane USP (Abbot Laboratories, Montreal Canada) in oxygen, and placed on a heating pad (set at 37° C.) to maintain body temperature. The animals were intubated and immediately ventilated with a mixture of 2 to 2.2% isoflurane USP (Abbot Laboratories, Montreal Canada) in oxygen by means of a positive-pressure rodent respirator (CWE model SAR-830/P) set at ≈10 mL/kg bodyweight at a frequency of 70-80 strokes/min. The pericardium was opened to expose the heart and a 5-0 wax coated braided silk suture (Sofsilk™) was placed around the left anterior descending (LAD) coronary artery, approximately 2-3 mm below the left atrium. The suture was briefly snared to verify the size and location of myocardial ischemia based on colour change and was then tied to produce a large anterolateral myocardial infarction (affecting around 45% of the LV). The suture was kept in place for 30 minutes (30 minutes of ischemia) followed by reperfusion. A group of rats receiving sham procedure was also included. […] Fourteen days after ischemia, cardiac function was assessed by transthoracic echocardiography (echocardiograph model Q9, ChisonMedical Imaging Co. connected to a Chison 12.0 MHz probe).

No end group written: not given here.

For the sequence “AMVSEFLKQAWFIENEEQEYVQTLKSSKGGPGSAVSPYPTFNPSSDV (AMVSEFLKQAWFIENEEQEYVQTLKSSKGGPGSAVSPYPTFNPSSDV-NH2; ends and bridges not checked) [Peptide 1]”, for the setting “14 days post ischemia, tail vein, three daily dosages (0, 3, 6 h post reperfusion) for 1 day or 3 days, 10, 30 or 100 ug/kg”, the “improvement of cardiac output compared to vehicle treatment” value is 20-30%. Further, the long-term cardiac function result (at least three dosages, echocardiography 14 days after ischemia, vs vehicle) is listed as “significantly improves long-term cardiac function”.
